Assay results from the supplement of paper PMC9663587.

Key:
[1] = compound: T1, CN1CC[C@H](c2c(O)cc(O)c3c(=O)cc(-c4ccccc4Cl)oc23)[C@H](O)C1 [Flavopiridol]; test: increase in dead-cell fraction, 72 h; higher = more death;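 note: breast cancer cell lines in 384-well plates, stained with Hoechst plus LIVE/DEAD far red dye and imaged, cells above an LDR intensity threshold counted dead, Hoechst-negative corpses included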
[2] = compound: T2, CN(C)C(=O)c1cc2cnc(Nc3ccc(N4CCNCC4)cn3)nc2n1C1CCCC1 [LEE011/Ribociclib]; test: as above
[3] = compound: CCN1CCN(Cc2ccc(Nc3ncc(F)c(-c4cc(F)c5nc(C)n(C(C)C)c5c4)n3)nc2)CC1; test: as above
[4] = compound: CC(=O)c1c(C)c2cnc(Nc3ccc(N4CCNCC4)cn3)nc2n(C2CCCC2)c1=O; test: as above
[5] = compound: T1, Flavopiridol; test: GR value, 72 h; higher = faster growth (1 = untreated, <0 = killing);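 note: breast cancer and non-malignant breast epithelial lines, nine half-log doses, viable cells counted by Hoechst and LIVE/DEAD dye imaging versus time-zero plates and DMSO controls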
[6] = compound: T2, LEE011/Ribociclib; test: as above
[7] = compound: CCN1CCN(Cc2ccc(Nc3ncc(F)c(-c4cc(F)c5nc(C)n(C(C)C)c5c4)n3)nc2)CC1; test: as above
[8] = compound: CN(C)C/C=C/C(=O)Nc1ccc(C(=O)Nc2cccc(Nc3ncc(Cl)c(-c4c[nH]c5ccccc45)n3)c2)cc1 [THZ1]; test: as above
[9] = compound: CC(=O)c1c(C)c2cnc(Nc3ccc(N4CCNCC4)cn3)nc2n(C2CCCC2)c1=O; test: as above
[10] = compound: CC(=O)c1c(C)c2cnc(Nc3ccc(N4CCN(CCOCCOCCOCCNC(=O)COc5cccc6c5C(=O)N(C5CCC(=O)NC5=O)C6=O)CC4)cn3)nc2n(C2CCCC2)c1=O [BSJ-03-123]; test: as above
[11] = compound: CCOc1cc2ncc(C#N)c(Nc3ccc(OCc4ccccn4)c(Cl)c3)c2cc1NC(=O)/C=C/CN(C)C [Neratinib/HKI272]; test: as above
[12] = compound: CCc1cnn2c(NCc3ccc[n+]([O-])c3)cc(N3CCCC[C@H]3CCO)nc12; test: as above

Cell Line: EFM19
- increase in dead-cell fraction ([1]; 0.0001 µM): -0.0095
- increase in dead-cell fraction ([1]; 0.0003162 µM): -0.003
- increase in dead-cell fraction ([1]; 0.001 µM): -0.0007
- increase in dead-cell fraction ([1]; 0.003162 µM): 0.0016
- increase in dead-cell fraction ([1]; 0.01 µM): 0.0002
- increase in dead-cell fraction ([1]; 0.03162 µM): -0.0106
- increase in dead-cell fraction ([1]; 0.1 µM): -0.0044
- increase in dead-cell fraction ([1]; 0.3162 µM): 0.0118
- increase in dead-cell fraction ([1]; 1 µM): 0.223
- increase in dead-cell fraction ([2]; 0.001 µM): -0.0027
- increase in dead-cell fraction ([2]; 0.003162 µM): -0.0038
- increase in dead-cell fraction ([2]; 0.01 µM): -0.0001
- increase in dead-cell fraction ([2]; 0.03162 µM): -0.0005
- increase in dead-cell fraction ([2]; 0.1 µM): 0.0163
- increase in dead-cell fraction ([2]; 0.3162 µM): 0.0047
- increase in dead-cell fraction ([2]; 1 µM): 0.0042
- increase in dead-cell fraction ([2]; 3.162 µM): 0.0248
- increase in dead-cell fraction ([2]; 10 µM): 0.0149
- increase in dead-cell fraction ([3]; 0.001 µM): -0.0101
- increase in dead-cell fraction ([3]; 0.003162 µM): -0.0007
- increase in dead-cell fraction ([3]; 0.01 µM): 0.0035
- increase in dead-cell fraction ([3]; 0.03162 µM): 0.0136
- increase in dead-cell fraction ([3]; 0.1 µM): 0.0179
- increase in dead-cell fraction ([3]; 0.3162 µM): 0.0249
- increase in dead-cell fraction ([3]; 1 µM): 0.0149
- increase in dead-cell fraction ([3]; 3.162 µM): 0.0183
- increase in dead-cell fraction ([3]; 10 µM): 0.0445
- increase in dead-cell fraction ([4]; 0.0003162 µM): -0.0086
- increase in dead-cell fraction ([4]; 0.001 µM): -0.0086
- increase in dead-cell fraction ([4]; 0.003162 µM): -0.0036
- increase in dead-cell fraction ([4]; 0.01 µM): -0.0059
- increase in dead-cell fraction ([4]; 0.03162 µM): -0.0024
- increase in dead-cell fraction ([4]; 0.1 µM): -0.0087
- increase in dead-cell fraction ([4]; 0.3162 µM): 0.0108
- increase in dead-cell fraction ([4]; 1 µM): 0.0355
- increase in dead-cell fraction ([4]; 3.162 µM): 0.0448
- GR value ([5]; 0.0001 µM): 1.03 GR
- GR value ([5]; 0.0003162 µM): 0.976 GR
- GR value ([5]; 0.001 µM): 0.978 GR
- GR value ([5]; 0.003162 µM): 0.991 GR
- GR value ([5]; 0.01 µM): 0.877 GR
- GR value ([5]; 0.03162 µM): 0.976 GR
- GR value ([5]; 0.1 µM): 0.809 GR
- GR value ([5]; 0.3162 µM): 0.466 GR
- GR value ([5]; 1 µM): -0.199 GR
- GR value ([6]; 0.001 µM): 0.892 GR
- GR value ([6]; 0.003162 µM): 0.802 GR
- GR value ([6]; 0.01 µM): 0.825 GR
- GR value ([6]; 0.03162 µM): 0.914 GR
- GR value ([6]; 0.1 µM): 0.688 GR
- GR value ([6]; 0.3162 µM): 0.61 GR
- GR value ([6]; 1 µM): 0.6 GR
- GR value ([6]; 3.162 µM): 0.415 GR
- GR value ([6]; 10 µM): 0.355 GR
- GR value ([7]; 0.001 µM): 0.984 GR
- GR value ([7]; 0.003162 µM): 0.967 GR
- GR value ([7]; 0.01 µM): 0.802 GR
- GR value ([7]; 0.03162 µM): 0.442 GR
- GR value ([7]; 0.1 µM): 0.359 GR
- GR value ([7]; 0.3162 µM): 0.337 GR
- GR value ([7]; 1 µM): 0.327 GR
- GR value ([7]; 3.162 µM): 0.359 GR
- GR value ([7]; 10 µM): 0.269 GR
- GR value ([8]; 0.0001 µM): 0.946 GR
- GR value ([8]; 0.0003162 µM): 1.1 GR
- GR value ([8]; 0.001 µM): 1.04 GR
- GR value ([8]; 0.003162 µM): 0.932 GR
- GR value ([8]; 0.01 µM): 1.01 GR
- GR value ([8]; 0.03162 µM): 0.922 GR
- GR value ([8]; 0.1 µM): 0.86 GR
- GR value ([8]; 0.3162 µM): 0.69 GR
- GR value ([8]; 1 µM): -0.299 GR
- GR value ([9]; 0.0003162 µM): 1.05 GR
- GR value ([9]; 0.001 µM): 1.03 GR
- GR value ([9]; 0.003162 µM): 1.03 GR
- GR value ([9]; 0.01 µM): 1.02 GR
- GR value ([9]; 0.03162 µM): 0.941 GR
- GR value ([9]; 0.1 µM): 0.843 GR
- GR value ([9]; 0.3162 µM): 0.626 GR
- GR value ([9]; 1 µM): 0.401 GR
- GR value ([9]; 3.162 µM): 0.284 GR
- GR value ([10]; 0.001 µM): 0.951 GR
- GR value ([10]; 0.003162 µM): 0.918 GR
- GR value ([10]; 0.01 µM): 0.806 GR
- GR value ([10]; 0.03162 µM): 0.733 GR
- GR value ([10]; 0.1 µM): 0.717 GR
- GR value ([10]; 0.3162 µM): 0.654 GR
- GR value ([10]; 1 µM): 0.48 GR
- GR value ([10]; 3.162 µM): 0.447 GR
- GR value ([10]; 10 µM): 0.117 GR
- GR value ([11]; 0.0003162 µM): 1.07 GR
- GR value ([11]; 0.001 µM): 1.12 GR
- GR value ([11]; 0.003162 µM): 1.12 GR
- GR value ([11]; 0.01 µM): 1.05 GR
- GR value ([11]; 0.03162 µM): 1.06 GR
- GR value ([11]; 0.1 µM): 1.03 GR
- GR value ([11]; 0.3162 µM): 0.933 GR
- GR value ([11]; 1 µM): 0.811 GR
- GR value ([11]; 3.162 µM): 0.688 GR
- GR value ([12]; 0.0001 µM): 1.1 GR
- GR value ([12]; 0.0003162 µM): 1.09 GR
- GR value ([12]; 0.001 µM): 1.15 GR
- GR value ([12]; 0.003162 µM): 1.15 GR
- GR value ([12]; 0.01 µM): 1.05 GR
- GR value ([12]; 0.03162 µM): 0.509 GR
- GR value ([12]; 0.1 µM): -0.295 GR
- GR value ([12]; 0.3162 µM): -0.448 GR
- GR value ([12]; 1 µM): -0.534 GR
